Laboratory results as given in patent publication EP4603105A1, “PHARMACEUTICAL COMPOSITION CONTAINING CYCLIC COMPOUND HAVING SELECTIVE KRAS INHIBITORY EFFECT AGAINST HRAS AND NRAS” (CHUGAI SEIYAKU KABUSHIKI KAISHA, priority 2022, dated 2024).
Where a SMILES comes first, the peptide text is derived from it. Bridges are numbered along the chain shown (N, C = ends). [ ]: non-standard residue; d: D form. The star is where a group is joined. hPhe(3-Cl-4-CF3) = N[C@@H](CCc1ccc(C(F)(F)F)c(Cl)c1)C(=O)O; NPrPhe(4-CF3) = CCCN[C@@H](Cc1ccc(C(F)(F)F)cc1)C(=O)O; NMeGly(cPent) = CN[C@H](C(=O)O)C1CCCC1; Pro(4,4-F2) = O=C(O)[C@@H]1CC(F)(F)CN1; Hyp = O=C(O)[C@@H]1C[C@@H](O)CN1; NMeL = CN[C@@H](CC(C)C)C(=O)O; Morpholide = C1CN(*)CCO1; Ac5c = NC1(C(=O)O)CCCC1; Aze = O=C(O)[C@@H]1CCN1; Ac4c = NC1(C(=O)O)CCC1; Sar = CNCC(=O)O

Columns and labels:
[1] = target: GDP-bound NRAS wild-type protein (Homo sapiens, UniProt P01111); assay: Binding to NRAS by surface plasmon resonance (SPR), KD and KD ratio to KRAS; details: ratio of KD for GDP-bound NRAS wild-type protein to KD for KRAS
Outline: (§1)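 SPR, 30°C: Avi-biotin RAS·GDP captured via Biotin CAPture (~100–300 RU); running buffer HBS pH 7.4, 1 mM DTT, 10 mM MgCl2, 0.01% Tween 20, 10 µM GDP, 4% DMSO. Single-cycle kinetics, 100 µL/min, 75 s injections; 1:1 model → KD.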

HRAS wild-type protein = HRAS wild-type protein (Homo sapiens, UniProt P01112); assay: Binding to HRAS by surface plasmon resonance (SPR), KD and KD ratio to KRAS; details: ratio of KD for HRAS wild-type protein to KD for KRAS
Outline: as §1

[2] = tested on: human lung cancer strain NCI-H441; format: cell-based
Outline: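 Proliferation was scored by […] measured after the reagent was added to cultures kept at 37°C in 5% carbon dioxide.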

Chain of GDP-bound NRAS wild-type protein (P01111 whole entry): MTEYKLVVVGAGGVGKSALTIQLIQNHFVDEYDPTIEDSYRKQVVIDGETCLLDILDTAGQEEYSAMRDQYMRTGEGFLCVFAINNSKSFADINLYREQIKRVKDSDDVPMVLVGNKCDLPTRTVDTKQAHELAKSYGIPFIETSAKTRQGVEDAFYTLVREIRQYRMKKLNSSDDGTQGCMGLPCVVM
Chain of HRAS wild-type protein (P01112 whole entry): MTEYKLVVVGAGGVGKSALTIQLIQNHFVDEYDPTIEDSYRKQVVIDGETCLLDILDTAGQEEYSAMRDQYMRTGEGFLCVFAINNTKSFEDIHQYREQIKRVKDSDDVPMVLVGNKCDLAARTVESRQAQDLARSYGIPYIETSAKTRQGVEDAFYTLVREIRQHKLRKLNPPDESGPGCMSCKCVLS

Row | Structure (SMILES) | NRAS /KRAS [1] | HRAS /KRAS (HRAS wild-type protein) | IC50 [2] [nM]
1 | CCCN1C(=O)[C@@H]2CCN2C(=O)CN(C)C(=O)[C@H]([C@@H](C)CC)NC(=O)[C@H](CC(C)C)N(C)C(=O)C[C@@H](C(=O)N2CCOCC2)NC(=O)[C@H](C2CCCC2)N(C)C(=O)C2(CCCC2)NC(=O)[C@@H]2CC(F)(F)CN2C(=O)[C@H](CCc2ccc(C(F)(F)F)c(Cl)c2)NC(=O)CN(C)C(=O)[C@@H]1Cc1ccc(C(F)(F)F)cc1 [PP0351] ([NMeL]I[Sar][Aze][NPrPhe(4-CF3)][Sar][hPhe(3-Cl-4-CF3)][Pro(4,4-F2)][Ac5c][NMeGly(cPent)]D-Morpholide; lactam N-11) | C (A compound having a KD ratio of 0.1 or more and less than 3 is denoted as C) | B (a compound having 3 or more and less than 10 is denoted as B) | 39
2 | CCCN1C(=O)[C@@H]2CCN2C(=O)CN(C)C(=O)[C@H]([C@@H](C)CC)NC(=O)[C@H](CC(C)C)N(C)C(=O)C[C@@H](C(=O)N2CCOCC2)NC(=O)[C@H](C2CCCC2)N(C)C(=O)C2(CCC2)NC(=O)[C@@H]2CC(F)(F)CN2C(=O)[C@H](CCc2ccc(C(F)(F)F)c(Cl)c2)NC(=O)CN(C)C(=O)[C@@H]1Cc1ccc(C(F)(F)F)cc1 [PP0352] ([NMeL]I[Sar][Aze][NPrPhe(4-CF3)][Sar][hPhe(3-Cl-4-CF3)][Pro(4,4-F2)][Ac4c][NMeGly(cPent)]D-Morpholide; lactam N-11) | C (A compound having a KD ratio of 0.1 or more and less than 3 is denoted as C) | B (a compound having 3 or more and less than 10 is denoted as B) | 72.4
3 | CCCN1C(=O)[C@@H]2CCN2C(=O)CN(C)C(=O)[C@H]([C@@H](C)CC)NC(=O)[C@H](CC(C)C)N(C)C(=O)C[C@@H](C(=O)N2CCOCC2)NC(=O)[C@H](C2CCCC2)N(C)C(=O)C2(CCCC2)NC(=O)[C@@H]2C[C@@H](OCC)CN2C(=O)[C@H](CCc2ccc(C(F)(F)F)c(Cl)c2)NC(=O)CN(C)C(=O)[C@@H]1Cc1ccc(C(F)(F)F)cc1 [PP0353] ([NMeL]I[Sar][Aze][NPrPhe(4-CF3)][Sar][hPhe(3-Cl-4-CF3)][Hyp](Et)[Ac5c][NMeGly(cPent)]D-Morpholide; lactam N-11) | C (A compound having a KD ratio of 0.1 or more and less than 3 is denoted as C) | B (a compound having 3 or more and less than 10 is denoted as B) | 46.7
4 | CCCN1C(=O)[C@@H]2CCN2C(=O)CN(C)C(=O)[C@H]([C@@H](C)CC)NC(=O)[C@H](CC(C)C)N(C)C(=O)C[C@@H](C(=O)N2CCOCC2)NC(=O)[C@H](C2CCCC2)N(C)C(=O)C2(CCC2)NC(=O)[C@@H]2C[C@@H](OCC)CN2C(=O)[C@H](CCc2ccc(C(F)(F)F)c(Cl)c2)NC(=O)CN(C)C(=O)[C@@H]1Cc1ccc(C(F)(F)F)cc1 [PP0354] ([NMeL]I[Sar][Aze][NPrPhe(4-CF3)][Sar][hPhe(3-Cl-4-CF3)][Hyp](Et)[Ac4c][NMeGly(cPent)]D-Morpholide; lactam N-11) | C (A compound having a KD ratio of 0.1 or more and less than 3 is denoted as C) | B (a compound having 3 or more and less than 10 is denoted as B) | 24.7
5 | CCCN1C(=O)CN(C)C(=O)CN(C)C(=O)[C@H]([C@@H](C)CC)NC(=O)[C@H](CC(C)C)N(C)C(=O)C[C@@H](C(=O)N(C)C)NC(=O)[C@H](C2CCCC2)N(C)C(=O)C2(CCCC2)NC(=O)[C@@H]2CCCN2C(=O)[C@H](CCc2ccc(C(F)(F)F)c(Cl)c2)NC(=O)CN(C)C(=O)[C@@H]1Cc1ccc(C(F)(F)F)cc1 [PP0355] ([NMeL]I[Sar][Sar][NPrPhe(4-CF3)][Sar][hPhe(3-Cl-4-CF3)]P[Ac5c][NMeGly(cPent)]D-NMe2; lactam N-11) | B (a compound having 3 or more and less than 10 is denoted as B) | B (a compound having 3 or more and less than 10 is denoted as B) | 48.2
6 | CCCN1C(=O)CN(C)C(=O)CN(C)C(=O)[C@H]([C@@H](C)CC)NC(=O)[C@H](CC(C)C)N(C)C(=O)C[C@@H](C(=O)N(C)C)NC(=O)[C@H](C2CCCC2)N(C)C(=O)C2(CCC2)NC(=O)[C@@H]2CCCN2C(=O)[C@H](CCc2ccc(C(F)(F)F)c(Cl)c2)NC(=O)CN(C)C(=O)[C@@H]1Cc1ccc(C(F)(F)F)cc1 [PP0356] ([NMeL]I[Sar][Sar][NPrPhe(4-CF3)][Sar][hPhe(3-Cl-4-CF3)]P[Ac4c][NMeGly(cPent)]D-NMe2; lactam N-11) | B (a compound having 3 or more and less than 10 is denoted as B) | B (a compound having 3 or more and less than 10 is denoted as B) | 99.4
7 | CCCN1C(=O)CN(C)C(=O)CN(C)C(=O)[C@H]([C@@H](C)CC)NC(=O)[C@H](CC(C)C)N(C)C(=O)C[C@@H](C(=O)N(C)C)NC(=O)[C@H](C2CCCC2)N(C)C(=O)C2(CCCC2)NC(=O)[C@@H]2CC(F)(F)CN2C(=O)[C@H](CCc2ccc(C(F)(F)F)c(Cl)c2)NC(=O)CN(C)C(=O)[C@@H]1Cc1ccc(C(F)(F)F)cc1 [PP0357] ([NMeL]I[Sar][Sar][NPrPhe(4-CF3)][Sar][hPhe(3-Cl-4-CF3)][Pro(4,4-F2)][Ac5c][NMeGly(cPent)]D-NMe2; lactam N-11) | B (a compound having 3 or more and less than 10 is denoted as B) | B (a compound having 3 or more and less than 10 is denoted as B) | 39.8
8 | CCCN1C(=O)CN(C)C(=O)CN(C)C(=O)[C@H]([C@@H](C)CC)NC(=O)[C@H](CC(C)C)N(C)C(=O)C[C@@H](C(=O)N(C)C)NC(=O)[C@H](C2CCCC2)N(C)C(=O)C2(CCC2)NC(=O)[C@@H]2CC(F)(F)CN2C(=O)[C@H](CCc2ccc(C(F)(F)F)c(Cl)c2)NC(=O)CN(C)C(=O)[C@@H]1Cc1ccc(C(F)(F)F)cc1 [PP0358] ([NMeL]I[Sar][Sar][NPrPhe(4-CF3)][Sar][hPhe(3-Cl-4-CF3)][Pro(4,4-F2)][Ac4c][NMeGly(cPent)]D-NMe2; lactam N-11) | B (a compound having 3 or more and less than 10 is denoted as B) | C (A compound having a KD ratio of 0.1 or more and less than 3 is denoted as C) | 34.8
9 | CCCN1C(=O)CN(C)C(=O)CN(C)C(=O)[C@H]([C@@H](C)CC)NC(=O)[C@H](CC(C)C)N(C)C(=O)C[C@@H](C(=O)N(C)C)NC(=O)[C@H](C2CCCC2)N(C)C(=O)C2(CCCC2)NC(=O)[C@@H]2C[C@@H](OCC)CN2C(=O)[C@H](CCc2ccc(C(F)(F)F)c(Cl)c2)NC(=O)CN(C)C(=O)[C@@H]1Cc1ccc(C(F)(F)F)cc1 [PP0359] ([NMeL]I[Sar][Sar][NPrPhe(4-CF3)][Sar][hPhe(3-Cl-4-CF3)][Hyp](Et)[Ac5c][NMeGly(cPent)]D-NMe2; lactam N-11) | B (a compound having 3 or more and less than 10 is denoted as B) | B (a compound having 3 or more and less than 10 is denoted as B) | 33.1
